From PubChem BioAssay (NCI)
Values joined by “and” are separate entries in the source; they are usually repeats but may differ in a detail not shown here. Equal entries are not always repeated.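 Five concentrations, 48 hours, 96-well plates. GI50 = concentration required for 50% inhibition of growth. Definition used: TGI = concentration required for complete inhibition of growth.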

Legend:
Assay in all cases: NCI tumour cell line growth inhibition, 48 h
EKVX NSCLC = tested on: EKVX NSCLC
SK-OV-3 ovarian = tested on: SK-OV-3 ovarian
SF-268 CNS = tested on: SF-268 CNS
CCRF-CEM leukemia = tested on: CCRF-CEM leukemia
HOP-62 NSCLC = tested on: HOP-62 NSCLC
SK-MEL-2 melanoma = tested on: SK-MEL-2 melanoma
ACHN renal = tested on: ACHN renal
RPMI-8226 leukemia = tested on: RPMI-8226 leukemia
SNB-78 CNS = tested on: SNB-78 CNS

Structure (SMILES)	GI50 (EKVX NSCLC)	TGI (EKVX NSCLC)	GI50 (SK-OV-3 ovarian)	TGI (SK-OV-3 ovarian)	GI50 (SF-268 CNS)	TGI (SF-268 CNS)	GI50 (CCRF-CEM leukemia)	TGI (CCRF-CEM leukemia)	GI50 (HOP-62 NSCLC)	TGI (HOP-62 NSCLC)	GI50 (SK-MEL-2 melanoma)	TGI (SK-MEL-2 melanoma)	GI50 (ACHN renal)	TGI (ACHN renal)	GI50 (RPMI-8226 leukemia)	TGI (RPMI-8226 leukemia)	TGI (SNB-78 CNS) [µM]
CC1=C([Te]c2ccccc2)C(=O)c2ccccc2C1=O	0.207 µM	0.76 µM	0.335 µM	1.28 µM	0.383 µM	1.64 µM	0.312 µM	3.3 µM	0.266 µM	0.762 µM	2.37 µM	5.58 µM	0.454 µM	1.61 µM	0.275 µM	1.31 µM	
COc1cc2nc(N3CCCN(C)CC3)nc(NC3CCN(Cc4ccccc4)CC3)c2cc1OC	3.83 µM	13.9 µM	3.19 µM	10.8 µM	2.72 µM	8.65 µM	2.37 µM	> 24.6 µM	3.23 µM	10.6 µM	2.08 µM	4.25 µM	2.25 µM	5.13 µM	2.31 µM	6.18 µM	
CC(=O)O.CN1[CH-]N(Cc2ccc(C#N)cc2)c2ccccc21.[Ag+]	> 100 µM	> 100 µM	24.4 µM	63.5 µM	72 µM	> 100 µM	22.2 µM	61.1 µM	47.4 µM	> 100 µM	> 100 µM	> 100 µM	16.3 µM	30.2 µM	31.3 µM	> 100 µM	
O=C(O)c1cccc(S(=O)(=O)NCCO)c1		> 100 µM		> 100 µM		> 100 µM		> 100 µM		> 100 µM		> 100 µM		> 100 µM		> 100 µM	
Cc1ccc(OP(=O)(Oc2ccc(C)cc2)N2C=Cc3ccccc3C2C#N)cc1 (stereo unspecified)		> 100 µM		> 100 µM		> 100 µM		> 100 µM		> 100 µM		> 100 µM		> 100 µM		> 100 µM	
CCOC(=O)c1[nH]c2cc(Cl)ccc2c1[C@@H](C(=O)NC(C)(C)C)N(CC)C(=O)CCCCC#Cc1cccc2c1CN(C1CCC(=O)NC1=O)C2=O (stereo partly specified)	1.39 µM	45.5 µM	0.694 µM	16.9 µM	0.0476 µM	28.7 µM	< 0.01 µM	> 100 µM	< 0.01 µM	6.81 µM	1.47 µM	4.15 µM	1.42 µM	13.3 µM	0.185 µM	2.88 µM	
O=S(=O)(N=C1C(Cl)=C(Cl)C(=NS(=O)(=O)c2ccccc2)C(Cl)=C1Cl)c1ccccc1	31.5 µM	> 100 µM	43.2 µM	> 100 µM	16 µM	42.2 µM	14.8 µM	90.9 µM	27.5 µM	80.3 µM	27.5 µM	> 100 µM	20.5 µM	65 µM	23.9 µM	> 100 µM	
CN(C)c1ccc(/C=N/NC(N)=S)nc1	3.09 µM	> 100 µM	4.5 µM	> 100 µM	2.22 µM	28.2 µM	2.82 µM	21.8 µM	3.11 µM	> 100 µM	> 100 µM	> 100 µM	2.55 µM	> 100 µM	3.21 µM	> 100 µM	
Cc1cc2c(F)c(Oc3ncnc(Nc4ccc(N5C[C@@H](C)N[C@@H](C)C5)cc4)c3C#N)cc(F)c2[nH]1	3.39 µM	14.7 µM	3.91 µM	13.7 µM	2.07 µM	8.36 µM	1.64 µM	9.16 µM	2.86 µM	9.87 µM	2.2 µM	4.67 µM	2.05 µM	4.21 µM	1.72 µM	4.33 µM	
CCCc1nn(C)c2c(=O)[nH]c(-c3cc(S(=O)(=O)N4CCN(C)CC4)ccc3OCC)nc12	> 100 µM	> 100 µM	> 100 µM	> 100 µM	> 100 µM	> 100 µM	> 100 µM	> 100 µM	> 100 µM	> 100 µM	> 100 µM	> 100 µM	> 100 µM	> 100 µM	> 100 µM	> 100 µM	
Cc1c(CN2CCN(C(=O)[C@H](C)O)CC2)sc2c(N3CCOCC3)nc(-c3cnc(N)nc3)nc12	0.121 µM and 0.21 µM	2.26 µM and 2.34 µM	0.123 µM and 0.112 µM	1.13 µM and 0.573 µM	0.328 µM and 0.204 µM	> 10 µM and 27.1 µM	1.11 µM and 0.322 µM	> 100 µM	0.548 µM and 0.182 µM	> 7.07 µM and 3.85 µM	0.513 µM and 0.198 µM	4.72 µM and 1.8 µM	0.203 µM and 0.145 µM		0.267 µM and 0.206 µM	> 8.66 µM and 11.8 µM	
CC1=C(C#N)C23C(=O)N(c4ccccc4)C(=O)C2=C(O)C=CC3(O)N1Cc1ccc(Cl)cc1Cl (stereo unspecified)	9.43 µM	21.3 µM	11.2 µM	23.2 µM	3.74 µM	16.4 µM	1.59 µM	4.28 µM	4.31 µM	15.7 µM	2.98 µM	11.5 µM	12.6 µM	25.2 µM	1.63 µM	4.22 µM	
Fc1cccc(COc2ccc(Nc3ncnc4onc(-c5ccccc5)c34)cc2)c1	1.61 µM	> 100 µM	0.459 µM	> 100 µM	0.384 µM	> 100 µM	0.287 µM	> 50.4 µM	0.406 µM	> 100 µM	0.426 µM	> 100 µM	3.38 µM	> 100 µM	0.0497 µM	> 42 µM	
NC(=O)c1cc(N2CC2)c([N+](=O)[O-])cc1[N+](=O)[O-]	> 200 µM	> 200 µM	> 200 µM	> 200 µM	> 200 µM	> 200 µM	> 200 µM	> 200 µM	> 200 µM	> 200 µM		> 20 µM	> 200 µM	> 200 µM	> 200 µM	> 200 µM	
CSc1ccc(C2=NN(C(C)=O)C(c3ccc(-c4cc(Cl)c(Cl)cc4Cl)o3)C2)cc1 (stereo unspecified)	14.9 µM	30.6 µM	16.7 µM	38.8 µM	16.3 µM	32.2 µM	21.5 µM	47 µM	15.8 µM	29.4 µM	16.8 µM	35.1 µM	15.8 µM	29.9 µM	10.9 µM	41 µM	
CN1C(=O)CCC(N2C(=O)c3cccc(NCCOCCOCCNC(=O)c4cc5c(o4)C(=O)c4ccccc4C5=O)c3C2=O)C1=O (stereo unspecified)	2.59 µM	7.28 µM	3.84 µM	12.4 µM	2.38 µM	6.79 µM	3.75 µM	24.4 µM	1.97 µM	3.43 µM	2.2 µM	6.49 µM	2.04 µM	5.17 µM	2.32 µM	7.06 µM	

Structure (SMILES)	GI50 (EKVX NSCLC)	TGI (EKVX NSCLC)	GI50 (SK-OV-3 ovarian)	TGI (SK-OV-3 ovarian)	GI50 (SF-268 CNS)	TGI (SF-268 CNS)	GI50 (CCRF-CEM leukemia)	TGI (CCRF-CEM leukemia)	GI50 (HOP-62 NSCLC)	TGI (HOP-62 NSCLC)	GI50 (SK-MEL-2 melanoma)	TGI (SK-MEL-2 melanoma)	GI50 (ACHN renal)	TGI (ACHN renal)	GI50 (RPMI-8226 leukemia)	TGI (RPMI-8226 leukemia)	TGI (SNB-78 CNS) [µM]
COc1nc(N)nc2c1ncn2C1CC(O)C(CO)O1 (stereo unspecified)		> 100 µM		> 100 µM		> 100 µM		> 100 µM		> 100 µM		> 100 µM		> 100 µM		> 100 µM	
COc1ccccc1C#Cc1ccccc1C#Cc1ccc(OCCCCCCOc2ccccc2C#Cc2ccccc2C#Cc2ccccc2OC)cc1	> 100 µM	> 100 µM	> 100 µM	> 100 µM	> 100 µM	> 100 µM	> 100 µM	> 100 µM	> 100 µM	> 100 µM	> 100 µM	> 100 µM	> 100 µM	> 100 µM	> 100 µM	> 100 µM	
Cc1ccc2c(C(C[N+](=O)[O-])c3ccccc3)c(-c3ccccc3)[nH]c2c1 (stereo unspecified)	75.9 µM	> 95 µM	33.8 µM	> 95 µM	73.3 µM	> 95 µM	25.2 µM	> 95 µM	34.2 µM	> 95 µM	46.3 µM	> 95 µM	57.2 µM	> 95 µM	36.8 µM	> 95 µM	
COc1cc2nc(Nc3cccc(Cl)c3)nc(N)c2cc1OC	12.9 µM	27 µM	18.1 µM	32.7 µM	6.41 µM	19.9 µM	2.36 µM	7.3 µM	5.81 µM	18.3 µM	8.28 µM	28.5 µM	11.4 µM	23.8 µM	2.11 µM	5.34 µM	
CCOC(=O)C(=Cc1ccc(C#N)cc1)C(=O)OCC	4.83 µM	17.6 µM	9.86 µM	21.5 µM	2.29 µM	7.57 µM	3 µM	9.32 µM	2.73 µM	9.81 µM	1.93 µM	4.19 µM	1.78 µM	3.46 µM	2.65 µM	7.71 µM	
CSC(=NC(=O)c1ccccc1Cl)SCCSC(=NC(=O)c1ccccc1Cl)SC		> 100 µM				> 100 µM		> 100 µM		> 100 µM		> 100 µM		> 100 µM		> 100 µM	> 100
COc1ccc(Br)cc1NC(=O)Nc1cccc2c1ccn2Cc1ccnc(N)c1	7.36 µM and 9.64 µM	> 100 µM	8.38 µM and > 10 µM	26.3 µM and > 10 µM	6.16 µM and > 10 µM	32.5 µM and > 10 µM	3.92 µM and 5.43 µM	40 µM and > 10 µM	4.86 µM and > 10 µM	11.1 µM and > 10 µM	2.78 µM and 3.82 µM	8.87 µM and > 10 µM	5.51 µM and 4.91 µM	23.2 µM and > 10 µM	2.93 µM and 3.54 µM	> 31.6 µM	
COc1ccc2cc(-c3cnc4nonc4n3)ccc2c1	0.83 µM	> 100 µM	10.8 µM	> 100 µM	8.59 µM	> 100 µM	1.62 µM	> 100 µM	5.22 µM	64 µM	3.66 µM	> 100 µM	4.33 µM	> 100 µM	0.685 µM	17.5 µM	
OC1CC2CCC(C1)N2CCCN1c2ccccc2Sc2ccc(Cl)cc21 (stereo unspecified)		10.1 µM		11.6 µM		6.23 µM		4.23 µM		10.4 µM		3.29 µM		7.07 µM		4.42 µM	
O=C(c1c(F)c(F)c(F)c(F)c1F)c1c(F)c(F)c(F)c(F)c1F		4.06 µM		5.57 µM		7.8 µM		1.15 µM		3.49 µM		7.02 µM		3.09 µM		4.71 µM	
NCCCCC(NC(=O)C(N)CCCN=C(N)N)C(=O)NC(CCCCN)C(=O)NC(CCCN=C(N)N)C(=O)NC(CCCN=C(N)N)C(=O)NC(CCC(N)=O)C(=O)NC(CCCN=C(N)N)C(=O)NC(CCCN=C(N)N)C(=O)NC(CCCN=C(N)N)C(=O)NCC(=O)NCC(=O)O (stereo unspecified)	> 50 µM	> 50 µM	> 50 µM	> 50 µM	> 50 µM	> 50 µM	1.53 µM	8.52 µM	> 50 µM	> 50 µM	> 50 µM	> 50 µM	> 50 µM	> 50 µM	> 50 µM	> 50 µM	
CSc1cc([C@@H]2C[C@H]2c2ccc(Cl)cc2)on1	29.8 µM	55.8 µM	50.6 µM	> 100 µM	21 µM	46.3 µM	20.3 µM	47.2 µM	13.8 µM	41.8 µM	25.2 µM	82.3 µM	13.9 µM	> 100 µM	22.7 µM	44.8 µM	
COc1cc(-n2ccnc2-c2ccc3ccccc3c2)cc(OC)c1OC	0.481 µM	> 72.4 µM	0.13 µM	24.7 µM	0.182 µM	49.8 µM	0.136 µM	> 100 µM	0.0895 µM	26 µM	0.19 µM	26.9 µM	2.6 µM	49 µM	0.292 µM	20.6 µM	
COc1cnc2c(c1)C(=O)c1c-2n(CCCN2CCCC2)c(=O)c2cc([N+](=O)[O-])ccc12	0.297 µM	12.3 µM	0.0336 µM	0.843 µM	0.0191 µM	12.8 µM	< 0.01 µM	3.77 µM	< 0.01 µM	1.24 µM	1.01 µM	15.9 µM	< 0.01 µM	0.132 µM	0.0374 µM	1.11 µM	
CCSC[C@@H]1C[C@](O)(c2ccc(Cl)cc2)[C@@H](c2ccc(Cl)cc2)O1	17.3 µM	40.7 µM	22.4 µM	60.2 µM	18.5 µM	35.7 µM	20.5 µM	59.4 µM	16.7 µM	30.7 µM	16 µM	35 µM	19.6 µM	36.6 µM	20.8 µM	51.2 µM	
